Measurements taken from patent US7579439B2, “Modulation of IL-2- and IL-15-mediated T cell responses” (Beth Israel Deaconess Medical Center, Inc., priority 2000, dated 2009).

Assays:
[1] = tested on: T cells at the second cell division in vivo; assay: In vitro proliferation of sorted in vivo dividing T cells (3H-TdR uptake); type: cell-based, mice; details: IL-2 in doses as high as; IL-15 5 ng/ml; 48 hours
Procedure: CFSE-labeled lymphocytes were stimulated in vivo for three days and cell division was analyzed by examining the CFSE profile. T cells in the second cell division were sorted and cells (1×10^4) were cultured in vitro with IL-2 or IL-15 for two days. Cellular proliferation was determined by ^3H-TdR uptake. The results are presented as the mean CPM±SD of triplicate assays.
Cell sorting and in vitro proliferation assays were carried out as follows. CFSE-labeled cells were prepared from irradiated allogeneic hosts three days after intravenous injection of labeled cells, and cell proliferation in vivo was identified by analysis of the cells' CFSE profile. The second cell division was selected, gated, and sorted with FACS Vantage™. Cells (1×10^4/ml) were resuspended in RPMI 1640 medium with 10% FCS and 1% penicillin and streptomycin, and stimulated with IL-2 (40 μ/ml to 500 μ/ml) or IL-15 (5 ng/ml) for 48 hours. Cells were pulsed with 1 mCi 3H-TdR (Amersham, Boston, Mass.) for 16 hours and ^3H-TdR uptake was determined by scintillation counting (Beckman Instrument, Columbia, Md.).

[2] = tested on: IL-2Rγ+ BAF-BO3 cell transfectants that express the IL-2Rβ subunit; assay: BAF-BO3 cell proliferation assay (IL-2Rβ transfectants); type: cell-based
Procedure: (§1) In the next series of experiments, the FLAG-HMK-IL-15 fusion protein was tested to determine whether it could function as a biologically active growth factor.

[3] = tested on: IL-15 binding sites on PHA-activated human PBMCs; assay: Cytofluorometric analysis of binding to PBMCs (anti-FLAG biotinylated Ab, streptavidin-RED670); details: flow cytometry
Procedure: The FLAG-HMK-IL-15 fusion protein, biotinylated anti-FLAG antibody, and streptavidin-RED670 were employed to detect expression of IL-15 binding sites on human PBMCs by cytofluorometric analysis. The PBMCs tested were either freshly isolated or PHA-activated. These cells were washed and incubated with either medium alone or FLAG-HMK-IL-15 followed by anti-FLAG biotinylated Ab and streptavidin-RED670. The stained cells were analyzed by flow cytometry. […] Both activated CD4^+ and CD8^+ cells express IL-15α chains. Activation induced IL-15Rα chains were also detected on CD14^+ (monocyte/macrophage) cells and CD16^+ (natural killer) cells.
PHA-activated PBMCs were washed and incubated with medium alone, or with the FLAG-HMK-IL-15 double mutant. The cells were then incubated with an anti-FLAG biotinylated antibody and stained with streptavidin conjugated to RED670. The stained cells were analyzed by flow cytometry.

human IL-15Rα subunit = molecular target: T1, human IL-15Rα subunit (Homo sapiens, UniProt Q13261); assay: Cross-linking of [32P]-FLAG-HMK-IL-15 to PHA-activated PBMCs (DSS, SDS-PAGE autoradiography); type: binding; details: cross-linked with DSS; band lost with molar excess of hIL-15
T1 construct: endogenous in cells
Procedure: The purified FLAG-HMK-IL-15 fusion protein was tested to determine whether it interacts with cell surface IL-15 receptors. As described above, [^32P]-FLAG-HMK-IL-15 was added to cultures of PBMCs that were activated by a mitogen, PHA. In order to permanently bind interactive proteins to one another, the chemical cross-linker disuccinimidyl suberate (DSS) was added. The cells were washed, lysed, centrifuged, and detergent-soluble proteins were separated by SDS-PAGE. […] The identity of this band as the IL-15Rα subunit was confirmed by cross-linking experiments conducted in the presence of a molar excess of hIL-15.

[4] = tested on: PHA-activated human PBMCs; assay: [3H]-TdR incorporation assay, PHA-activated PBMCs; type: cell-based
Procedure: as §1

[5] = tested on: parental BAF-BO3 cells transfected with a vector lacking IL-2Rβ chain sequences; assay: BAF-BO3 cell proliferation assay (parental cells, vector lacking IL-2Rβ); type: cell-based; details: parental BAF-BO3 cells lacking IL-2Rβ
Procedure: In the next series of experiments, the FLAG-HMK-IL-15 fusion protein was tested to determine whether it could function as a biologically active growth factor. […] Thus, FLAG-HMK-IL-15 is a biologically active growth factor that requires expression of IL-2Rβ chains upon target cells in order to stimulate cellular proliferation.

[6] = tested on: leukemic cell lines MOLT-14, YT, HuT-102, 2A and 2B; assay: FACS analysis of leukemic cell lines stained with FLAG-HMK-IL-15; type: binding; details: flow cytometry
Procedure: The cells treated were obtained from the leukemic cell lines MOLT-14, YT, HuT-102, and from cell lines currently being established at Beth Israel Hospital (Boston, Mass.), and named 2A and 2B. The cultured cells were washed and incubated with either medium alone or with medium containing the FLAG-HMK-IL-15 wild-type polypeptide. The cells were then incubated with the biotinylated anti-FLAG antibody and stained with RED670-conjugated streptavidin. The stained cells were analyzed by flow cytometry.

T1 sequence (Q13261 31-267): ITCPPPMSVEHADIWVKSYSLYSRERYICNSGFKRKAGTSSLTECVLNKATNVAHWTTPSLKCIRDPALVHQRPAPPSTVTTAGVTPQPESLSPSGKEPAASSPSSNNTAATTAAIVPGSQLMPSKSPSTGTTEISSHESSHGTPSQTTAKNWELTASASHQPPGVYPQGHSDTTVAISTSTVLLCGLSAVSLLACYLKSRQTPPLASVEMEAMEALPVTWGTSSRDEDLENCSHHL

| Substance | T cell proliferation by 3H-TdR uptake [1] | inhibition of BAF-BO3 proliferation ([2]; 30 μl versus 20 μL of approximately 50 μg/ml) | binding to PHA activated PBMCs [3] | binding to the IL-15Rα subunit on the surface of mitogen-activated PBMCs (human IL-15Rα subunit) | stimulation of cell proliferation [4] | stimulation of proliferation ([2]; BAF-BO3 transfectants expressing IL-2Rβ) | stimulation of proliferation [5] | binding to leukemia cells [6] |
| --- | --- | --- | --- | --- | --- | --- | --- | --- |
| IL-15: recombinant human IL-15 | stimulated vigorous cell proliferation |  |  |  |  |  |  |  |
| FLAG-HMK-IL-15 double mutant: human IL-15 protein bearing a double mutation (Q149D; Q156D), FLAG-HMK tagged |  | inhibit BAF-BO3 proliferation in a dose-dependent manner | bind PHA activated human PBMCs was demonstrated |  |  |  |  |  |
| FLAG-HMK-IL-15: IL-15 polypeptide having an N-terminus covalently bound to the 18 amino acid FLAG-HMK-sequence |  |  | blocked by a molar excess of rIL-15 | site specific binding | proliferate in response to | stimulates proliferation | does not, however, stimulate the proliferation | bind leukemia cells was shown |
